Assay results from patent US20230047208A1, “RNA Splicing Modulation” (The General Hospital Corporation, priority 2020, published 2023).

Test system: wildtype (WT) human fibroblast cell lines
Assay: Transcriptome-wide splicing by RNA sequencing (RNASeq), exon triplet PSI change
Assay type: cell-based
Set-up: key to Effect: Exclusion; Inclusion; Unchanged
Description: FIG. 2A provides a representation of an exon triplet. Exon U is upstream of Exon X, which is upstream of Exon D. R1, R2 and R3 represent RNA sequencing (RNASeq) reads spanning the regions between two adjacent exons. UI1, I1X, XI2 and I2D are four regions flanking the four splice sites of the exon-triplet. Each flanking region consists of 25 exonic base pairs and 75 intronic base pairs.
FIG. 2B provides a volcano plot showing the ψ (PSI: Percent Spliced-In) changes in splicing after treatment with Compound (I). Each dot represents one of the 161,097 expressed exon triplets in human fibroblasts. The x axis represents the ψ changes after treatment and the y axis represents the False Discovery Rate (FDR) (log 10 transformed). […] The horizontal dashed line indicates an FDR of 0.1. The dots on the right side of the right vertical dashed line and above the horizontal dashed line represent the exon-triplets with an increase for Exon X inclusion (Δψ≥0.1 and FDR<0.1) while the dots on left side of the left vertical dashed line and above the horizontal dashed line represent an increase for Exon X exclusion (Δψ≤−0.1 and FDR<0.1). Black dots in-between the two vertical dashed lines represent exon-triplets unchanged from the treatment.
In some aspects, analysis is performed on data derived from the assay to measure the magnitude of splicing to determine the amount of exons spliced into an mRNA transcript that is produced in the presence of Compound (I) relative to the amount in the absence of Compound (I) or presence of a negative control. In a preferred aspect, the method utilized is calculation of change in Percent Spliced In (ΔPSI). […] The ΔPSI value is derived from the formula: […]
The values for “a” and “b” represent the number of reads supporting the probability for potential inclusion or exclusion of an exon in an RNA transcript. The “a” value is derived from the number of reads within an exon triplet covering, in 5′ to 3′ order: the last few bases (>1 nucleotide) of an upstream exon operably linked to the first few bases (>1 nucleotide) of a middle exon. The “b” value is derived from the number of reads within an exon triplet covering, in 5′ to 3′ order: the last few bases (>1 nucleotide) of the middle exon operably linked to the first few bases (>1 nucleotide) of a downstream exon. The number of reads will indicate whether the splice junction of a middle exon has been identified as potentially having a CNN Motif(s) by the CNN Model described herein, wherein the inclusion or exclusion of the middle exon may be modulated in the presence of Compound (I) to produce one or more mature RNA isoforms from the gene transcript. The value for “c” represents the number of reads supporting the exclusion of the middle exon.
The effect on splicing modulation and corresponding splice differences toward exon inclusion or exclusion was determined by counting the RNASeq reads covering two splice junctions of exon triplets (three consecutive exons: Exon U, Exon X, Exon D) and the corresponding intervening introns, then comparing the change in Percent Spliced In (ΔPSI or Δψ) of the middle exon (Exon X) after treatment (as shown in FIG. 2A)^52,53. 934 exon triplets were identified showing differential middle exon inclusion or exclusion in response to Compound (I) treatment. Of these, 254 were exon inclusion events (Δψ≥0.1 and FDR<0.1) and 680 were exon exclusion events (Δψ≤−0.1 and FDR<0.1) (as shown in FIG. 2B). […] The splicing results were evaluated by RT-PCR in independent replicate experiments, confirming all the calculated Δψ values. […]

Clc1nc(NCc2ccncc2)c2cc[nH]c2n1 [Compound (I), 2-chloro-N-(pyridin-4-ylmethyl)-7H-pyrrolo[2,3-d]pyrimidin-4-amine]
splicing changes, share of all expressed triplets (934 out of 161,097 expressed triplets): 0.58%
Effect (Exc/Inc/Unc of the middle exon of the exon triplet, six WT human fibroblast cell lines treated for seven days vs DMSO, gene LENG8): Exc
Effect (Exc/Inc/Unc of the middle exon of the exon triplet, six WT human fibroblast cell lines treated for seven days vs DMSO, gene LGALS8): Inc
Effect (Exc/Inc/Unc of the middle exon of the exon triplet, six WT human fibroblast cell lines treated for seven days vs DMSO, gene LRP12): Unc
Effect (MYO1B Exon 192265475-192265561): Inc
T-PSI (MYO1B Exon 192265475-192265561): 0.296
ΔPSI (MYO1B Exon 192265475-192265561): 0.128
Effect (MYO1B Exon 192267358-192267444): Inc
T-PSI (MYO1B Exon 192267358-192267444): 0.483
ΔPSI (MYO1B Exon 192267358-192267444): 0.190
Effect (MYO5A Exon 52630007-52630081): Exc
T-PSI (MYO5A Exon 52630007-52630081): 0.063
ΔPSI (MYO5A Exon 52630007-52630081): −0.118
Effect (MYO5A Exon 52635314-52635394): Unc
T-PSI (MYO5A Exon 52635314-52635394): 0.617
ΔPSI (MYO5A Exon 52635314-52635394): 0.007
Effect (MYO5A Exon 52641015-52641023): Inc
T-PSI (MYO5A Exon 52641015-52641023): 0.953
ΔPSI (MYO5A Exon 52641015-52641023): 0.130
Effect (MYO18A Exon 27464034-27464102): Unc
T-PSI (MYO18A Exon 27464034-27464102): 0.330
ΔPSI (MYO18A Exon 27464034-27464102): 0.005
Effect (MYO19 Exon 34870956-34871025): Exc
T-PSI (MYO19 Exon 34870956-34871025): 0.870
ΔPSI (MYO19 Exon 34870956-34871025): −0.109
Effect (N6AMT2 Exon 21311862-21311944): Unc
T-PSI (N6AMT2 Exon 21311862-21311944): 0.755
ΔPSI (N6AMT2 Exon 21311862-21311944): 0.010
Effect (NABP1 Exon 192547218-192547321): Inc
T-PSI (NABP1 Exon 192547218-192547321): 0.729
ΔPSI (NABP1 Exon 192547218-192547321): 0.198
Effect (NADK2 Exon 36208727-36208792): Exc
T-PSI (NADK2 Exon 36208727-36208792): 0.005
ΔPSI (NADK2 Exon 36208727-36208792): −0.102
Effect (NAE1 Exon 66860571-66860683): Exc
T-PSI (NAE1 Exon 66860571-66860683): 0.596
ΔPSI (NAE1 Exon 66860571-66860683): −0.315
Effect (NAE1 Exon 66860580-66860683): Exc
T-PSI (NAE1 Exon 66860580-66860683): 0.859
ΔPSI (NAE1 Exon 66860580-66860683): −0.115
Effect (NBN Exon 90994181-90994230): Exc
T-PSI (NBN Exon 90994181-90994230): 0.017
ΔPSI (NBN Exon 90994181-90994230): −0.156
Effect (NCK2 Exon 106497784-106498505): Unc
T-PSI (NCK2 Exon 106497784-106498505): 0.586
ΔPSI (NCK2 Exon 106497784-106498505): −0.008
Effect (NCOR2 Exon 124811955-124812179): Unc
T-PSI (NCOR2 Exon 124811955-124812179): 0.657
ΔPSI (NCOR2 Exon 124811955-124812179): 0.000
Effect (NCOR2 Exon 124812093-124812179): Unc
T-PSI (NCOR2 Exon 124812093-124812179): 0.681
ΔPSI (NCOR2 Exon 124812093-124812179): −0.001
Effect (NEDD1 Exon 97301382-97301634): Unc
T-PSI (NEDD1 Exon 97301382-97301634): 0.826
ΔPSI (NEDD1 Exon 97301382-97301634): −0.003
Effect (NEDD1 Exon 97301480-97301634): Unc
T-PSI (NEDD1 Exon 97301480-97301634): 0.878
ΔPSI (NEDD1 Exon 97301480-97301634): 0.008
Effect (NEK1 Exon 170508710-170508764): Exc
T-PSI (NEK1 Exon 170508710-170508764): 0.830
ΔPSI (NEK1 Exon 170508710-170508764): −0.152
Effect (NEO1 Exon 73567033-73567065): Inc
T-PSI (NEO1 Exon 73567033-73567065): 0.149
ΔPSI (NEO1 Exon 73567033-73567065): 0.120
Effect (NEXN Exon 78390873-78390914): Exc
T-PSI (NEXN Exon 78390873-78390914): 0.654
ΔPSI (NEXN Exon 78390873-78390914): −0.138
Effect (NF2 Exon 30079009-30079053): Inc
T-PSI (NF2 Exon 30079009-30079053): 0.900
ΔPSI (NF2 Exon 30079009-30079053): 0.167
Effect (NF2 Exon 30079009-30079068): Inc
T-PSI (NF2 Exon 30079009-30079068): 0.807
ΔPSI (NF2 Exon 30079009-30079068): 0.244
Effect (NFE2L1 Exon 46134394-46134483): Exc
T-PSI (NFE2L1 Exon 46134394-46134483): 0.327
ΔPSI (NFE2L1 Exon 46134394-46134483): −0.156
